Data as given in patent US20070293510A1, “Thiadiazole compounds and use thereof” (Sumitomo Chemical company, Limited ( a Japanese corporation), priority 2002, published 2007).

Tested on: cotton aphids (Aphis gossypii)
Test: Test Example: cotton aphid control on cucumber plants, spray of diluted formulation
Assay type: in vivo
Details: formulation per Formulation Example 5 diluted with water to 500 ppm active ingredient; sprayed 20 ml/cup on cucumber plants with about 20 cotton aphids; counted on the 6th day after application
Experimental: Each formulation of the present compound (1), (3), (4), (6), (7), (8), (12), (13), (14), (15), (16), (17), (18), (19), (20), (21), (22), (23), (24), (25), (26), (28), (30), (31), (33), (34), (35), (36), (37), (38), (42), (43) and (44) obtained according to the Formulation Example 5 was diluted with water so that the active ingredient concentration came to 500 ppm to prepare a diluting liquid. The seeds of cucumber were planted in polyethylene cups and grown until their first foliage leaves developed, on which about 20 cotton aphids (Aphis gossypii) were made parasitic. After one day, the diluting liquid was sprayed at the rate of 20 ml/cup onto the cucumber plants. On the 6th day after the application, the number of cotton aphids was examined. As a result, the numbers of the living cotton aphids were three or less.

Structure (SMILES)	numbers of the living cotton aphids
CSc1nsc(OCc2ccccc2)n1 [present compound (1), 5-benzyloxy-3-methylthio-1,2,4-thiadiazole]	three or less
CSc1nsc(OCc2cccc(Cl)c2)n1 [present compound (3), 5-(3-chlorobenzyloxy)-3-methylthio-1,2,4-thiadiazole]	three or less
CSc1nsc(OCc2ccc(Cl)cc2)n1 [present compound (4), 5-(4-chlorobenzyloxy)-3-methylthio-1,2,4-thiadiazole]	three or less
CSc1nsc(OCc2cccc(C(F)(F)F)c2)n1 [present compound (6), 5-(3-trifluoromethylbenzyloxy)-3-methylthio-1,2,4-thiadiazole]	three or less
CSc1nsc(OCc2ccc(C(F)(F)F)cc2)n1 [present compound (7), 5-(4-trifluoromethylbenzyloxy)-3-methylthio-1,2,4-thiadiazole]	three or less
CSc1nsc(OCc2ccc(C)cc2)n1 [present compound (8), 5-(4-methylbenzyloxy)-3-methylthio-1,2,4-thiadiazole]	three or less
CSc1nsc(OCc2ccc(F)cc2)n1 [present compound (12), 5-(4-fluorobenzyloxy)-3-methylthio-1,2,4-thiadiazole]	three or less
CSc1nsc(OCc2ccc(Br)cc2)n1 [present compound (13), 5-(4-bromobenzyloxy)-3-methylthio-1,2,4-thiadiazole]	three or less
CSc1nsc(OCc2ccc(I)cc2)n1 [present compound (14), 5-(4-iodobenzyloxy)-3-methylthio-1,2,4-thiadiazole]	three or less
CSc1nsc(OCc2ccc(OC(F)(F)F)cc2)n1 [present compound (15), 5-(4-trifluoromethoxybenzyloxy)-3-methylthio-1,2,4-thiadiazole]	three or less
CSc1nsc(OCc2c(F)cccc2F)n1 [present compound (16), 5-(2,6-difluorobenzyloxy)-3-methylthio-1,2,4-thiadiazole]	three or less
CSc1nsc(OCc2cc(F)cc(F)c2)n1 [present compound (17), 5-(3,5-difluorobenzyloxy)-3-methylthio-1,2,4-thiadiazole]	three or less
CSc1nsc(OCc2ccc(Cl)c(Cl)c2)n1 [present compound (18), 5-(3,4-dichlorobenzyloxy)-3-methylthio-1,2,4-thiadiazole]	three or less
CSc1nsc(OCc2ccccn2)n1 [present compound (19), 5-(2-pyridylmethyloxy)-3-methylthio-1,2,4-thiadiazole]	three or less
CSc1nsc(OCc2ccc(Cl)nc2)n1 [present compound (21), 5-(6-chloro-3-pyridyl)methyloxy-3-methylthio-1,2,4-thiadiazole]	three or less
CSc1nsc(OC(C)c2ccccc2)n1 (centres unmarked) [present compound (22), 5-(1-phenylethoxy)-3-methylthio-1,2,4-thiadiazole]	three or less

Structure (SMILES)	numbers of the living cotton aphids
CSc1nsc(OCCc2ccccc2)n1 [present compound (23), 5-(2-phenylethoxy)-3-methylthio-1,2,4-thiadiazole]	three or less
CSc1nsc(OCCc2ccccn2)n1 [present compound (24), 5-(2-pyridyl-2-ethyloxy)-3-methylthio-1,2,4-thiadiazole]	three or less
CSc1nsc(OCCCc2ccccc2)n1 [present compound (25), 5-(3-phenylpropyloxy)-3-methylthio-1,2,4-thiadiazole]	three or less
CSc1nsc(OCc2cccc([N+](=O)[O-])c2)n1 [present compound (26), 5-(3-nitrobenzyloxy)-3-methylthio-1,2,4-thiadiazole]	three or less
CSc1nsc(OCc2cc(Cl)cc(Cl)c2)n1 [present compound (28), 5-(3,5-dichlorobenzyloxy)-3-methylthio-1,2,4-thiadiazole]	three or less
C=CCSc1nsc(OCc2ccccc2)n1 [present compound (30), 5-benzyloxy-3-allylthio-1,2,4-thiadiazole]	three or less
c1ccc(COc2nc(SCc3ccccc3)ns2)cc1 [present compound (31), 5-benzyloxy-3-benzylthio-1,2,4-thiadiazole]	three or less
COc1ccc(CSc2nsc(OCc3ccccc3)n2)cc1 [present compound (33), 5-benzyloxy-3-(4-methoxybenzyl)thio-1,2,4-thiadiazole]	three or less
CSc1nsc(OCc2ccncc2)n1 [present compound (34), 5-(4-pyridylmethyloxy)-3-methylthio-1,2,4-thiadiazole]	three or less
CSc1nsc(OCc2cccc(Cl)n2)n1 [present compound (35), 5-(6-chloro-2-pyridylmethyloxy)-3-methylthio-1,2,4-thiadiazole]	three or less
CSc1nsc(OCc2ncccn2)n1 [present compound (36), 5-(2-pyrimidylmethyloxy)-3-methylthio-1,2,4-thiadiazole]	three or less
CSc1nsc(OCc2cncnc2)n1 [present compound (37), 5-(5-pyrimidylmethyloxy)-3-methylthio-1,2,4-thiadiazole]	three or less
c1ccc(CSc2nsc(OCc3cncnc3)n2)cc1 [present compound (38), 5-(5-pyrimidylmethyloxy)-3-benzylthio-1,2,4-thiadiazole]	three or less
CCOCSc1nsc(OCc2ccccc2)n1 [present compound (42), 5-benzylloxy-3-ethoxymethylthio-1,2,4-thiadiazole]	three or less
c1ccc(COCSc2nsc(OCc3ccccc3)n2)cc1 [present compound (43), 5-bezyloxy-3-benzyloxymethylhio-1,2,4-thiadiazole]	three or less
CC(=O)OCSc1nsc(OCc2ccccc2)n1 [present compound (44), 5-bezyloxy-3-acetoxymethylhio-1,2,4-thiadiazole]	three or less
